Measured values: article PMC10606064, “2-Aminothiazole-Flavonoid Hybrid Derivatives Binding to Tau Protein and Responsible for Antitumor Activity in Glioblastoma” (International Journal of Molecular Sciences, 2023)

Columns and labels:
[1] = tested on: U138 glioblastoma cells; experiment: MTT cell viability assay, U138; format: cell-based; settings: Homo sapiens, U138, 72 h, mean ± SEM, read-out: IC50 (metabolic activity)
Method: (§1) Cells harvested from sub-confluent monolayers were seeded at 15,000 cells per mL in a 96-well microtiter plate (Cambridge Technology, Labège, France) and cultured for 24 h under standard conditions. Standard medium was then replaced by fresh medium containing no drugs or compounds at different concentrations. The surviving cells were quantified after 72 h by the MTT assay, according to the manufacturer’s instructions. Briefly, 20 µL of 3-(4,5-diMethylThiazol-2-yl)-2,5diphenyl Tetrazolium bromide (MTT) solution at 5 mg.mL^−1 was added to cells for 3 h at 37 °C. The supernatant was discarded and replaced by 100 µL of dimethyl sulfoxide to dissolve formazan crystals. The absorbance was then read at 600 nm by spectrophotometry. For all concentrations of a given compound, cell viability was expressed as the percentage of the ratio between the mean absorbance of treated cells and the mean absorbance of untreated cells. Three independent experiments were performed, and the data were expressed as percentage of survival (using the untreated cells as 100%) and subjected to statistical analysis (n = 3). The IC50 was calculated using the Chou and Talalay method.

[2] = tested on: T98G glioblastoma cells; experiment: MTT cell viability assay, T98G; format: cell-based; settings: Homo sapiens, 72 h, mean ± SEM, read-out: IC50 (metabolic activity)
Method: as §1

[3] = tested on: SK-N-SH neuroblastoma cells; experiment: MTT cell viability assay, SK-N-SH; format: cell-based; settings: Homo sapiens, 72 h, mean ± SEM, read-out: IC50 (metabolic activity)
Method: as §1

[4] = tested on: U87 shCTRL cells; experiment: Microtubule network analysis (alpha-tubulin immunofluorescence), U87 shCTRL; format: cell-based, human
Method: Cells were then fixed in 4% formaldehyde (in PBS pH 7.4) for 20 min at RT, permeabilized with PBS-Triton X-100 0.5% for 10 min at RT. Immunostaining was carried out overnight at 4 °C with a primary anti-citrate synthase antibody (dilution 1:400 in PBS-BSA 3%; SC390693; SantaCruz Biotechnologies, Heidelberg, Germany). The following day, the cells were washed then incubated with anti-mouse secondary antibody (dilution 1:800 in PBS-BSA 3%; A-11029; Invitrogen) and TRITC-phalloidin (dilution 1:2500 in PBS-BSA 3%; P1951; Sigma-Aldrich, Saint-Quentin-Fallavier, France) for 1 h at RT in the dark. For the microtubule network, the same protocol for mitochondria labeling was carried out by replacing with primary anti-α-tubulin antibody (dilution 1:400 in PBS-BSA 1% from a 1 mg/mL solution; monoclonal antibody, clone DM1A, Sigma-Aldrich, Saint-Quentin-Fallavier, France). Next, cells were washed in PBS and cover glasses were mounted with a drop of ProLong® anti-fade solution (Invitrogen). Mitochondria and cytoskeletons were imaged using a confocal laser scanning microscope (CLSM) Leica SP5 with a Leica inverted microscope, equipped with a Plan-Apochromat 63×oil immersion objective (NA = 1.4). Each image was recorded with the CLSM’s spectral mode selecting specific domains of the emission spectrum. The Alexafluor488 and FITC fluorophores were excited at 488 nm with an argon laser, and fluorescence emission was collected between 496 nm and 535 nm. The TRITC fluorophore was excited at 543 nm with a helium–neon laser, and fluorescence was collected between 560 and 620 nm. The public-domain Fiji v1.54f software was used for image analysis.
The analyses of mitochondria and microtubule networks were performed using, respectively, the ‘Mitochondria analyzer’ plugin for Fiji v1.54f software and the method described in our earlier work. Briefly, a series of images were transferred to the software and corrected for background fluorescence intensity contribution. Next, the surface of 50 single cells was measured by considering the cell shape as the boundary of labelling of actin or α-tubulin cytoskeletons (respectively for measurement on mitochondria or microtubules). Then, the mitochondria elongation and mean branch junction per mitochondria parameters, and the surface of the microtubule network, were measured by performing systematically the Otsu method to reduce all gray-level images to binary images. Note that the Otsu plugin in ImageJ is an algorithm which searches for the threshold minimizing the intra-class variance of pixel intensities, defined as a weighted sum of variances of the two classes; the local set is a circular region of interest, and the central pixel is tested against the Otsu threshold found for that region. Moreover, the ratios of microtubules on cell surfaces were calculated as percentages.

[5] = tested on: U87 shTau cells; experiment: Microtubule network analysis (alpha-tubulin immunofluorescence), U87 shTau; format: cell-based, human; settings: 0–20 µM, 24 h
Method: For indirect immunofluorescence of mitochondria, 10^4 cells were plated on cover glass and incubated for 24 h with compounds. Cells were then fixed in 4% formaldehyde (in PBS pH 7.4) for 20 min at RT, permeabilized with PBS-Triton X-100 0.5% for 10 min at RT. Immunostaining was carried out overnight at 4 °C with a primary anti-citrate synthase antibody (dilution 1:400 in PBS-BSA 3%; SC390693; SantaCruz Biotechnologies, Heidelberg, Germany). […] Each image was recorded with the CLSM’s spectral mode selecting specific domains of the emission spectrum. The Alexafluor488 and FITC fluorophores were excited at 488 nm with an argon laser, and fluorescence emission was collected between 496 nm and 535 nm. The TRITC fluorophore was excited at 543 nm with a helium–neon laser, and fluorescence was collected between 560 and 620 nm. […]
The analyses of mitochondria and microtubule networks were performed using, respectively, the ‘Mitochondria analyzer’ plugin for Fiji v1.54f software and the method described in our earlier work. Briefly, a series of images were transferred to the software and corrected for background fluorescence intensity contribution. Next, the surface of 50 single cells was measured by considering the cell shape as the boundary of labelling of actin or α-tubulin cytoskeletons (respectively for measurement on mitochondria or microtubules). […]

[6] = 1.25 µM, 24 h, untreated 39 ± 5%

| Compound | IC50 [1] | IC50 [2] | IC50 [3] | ratio of microtubule network surface to total cell surface [4, 6] | ratio of microtubule network surface to total cell surface ([4]; 5 µM, 8 h (maximal)) | ratio of microtubule network surface to total cell surface ([4]; 20 µM, 24 h, untreated 39 ± 5%) | change of microtubule network [5] |
| --- | --- | --- | --- | --- | --- | --- | --- |
| Nc1nc2ccc3oc(-c4cccc(Oc5ccccc5)c4)cc(=O)c3c2s1 [Compound 2, 2-amino-7-(3-phenoxyphenyl)-9H-chromeno [6,5-d]thiazol-9-one] | 2300 ± 1000 nM | 2800 ± 2400 nM | 1200 ± 300 nM | 42.2 ± 6.7% | 44.1 ± 3.8% | 43.2 ± 9.3% | no change |
| Nc1nc2ccc3oc(C(=O)O)cc(=O)c3c2s1 [Compound 5] | > 100000 nM | > 100000 nM | > 100000 nM | no effect | no effect on microtubule networks | no effect | no change |
